Test results published in US20070202158A1, “Methods Of Administering Water-Soluble Prodrugs Of Propofol For Extended Sedation” (MGI GP, Inc., priority 2003, published 2007).

Assays:
[1] = Crossover study of plasma bioavailability of propofol in human volunteers after oral or intraduodenal prodrug (Table II); assay type: in vivo; conditions: for Blood plasma concentration of propofol, Mean / Blood plasma concentration of propofol, Median: human volunteers
From the text: Blood plasma samples were drawn at various time points post administration and frozen until chromatographic analysis of propofol concentrations. Plasma propofol concentrations at various time points after administration are given for both routes of administration in Table II, below: […]

[2] = Plasma concentration of propofol derived from the test prodrug in rats (Table I); assay type: in vivo; conditions: rat; for F_Cmax / F_AUCt: relative to 5 mg/kg IV; for AUCt / Cmax: propofol in plasma; for AUCt: 0-360 min
Experimental: Upon administration, the test prodrug is converted in the body into propofol, its pharmacologically active metabolite. The pharmacokinetic profile, i.e. the blood plasma concentration of propofol derived from the test prodrug, was assessed in a separate experiment. Male Sprague-Dawley Rats (225-250 g) were obtained with indwelling jugular or intraduodenal catheters (Hilltop Labs, PA). On the day of testing, control blood samples were taken from the jugular vein prior to dosing. O-phosphonooxymethyl propofol disodium salt was then dosed in different concentrations in groups of 2-3 rats. The test prodrug was administered either by the oral, intravenous or intraduodenal routes. Blood samples (0.5 ml) were taken at 5, 15, 30, 45, 60, 120, 240 and 360 min after administration of the test prodrug. Blood samples were centrifuged to obtain plasma and stored frozen until analysis. The outcome of this experiment is depicted in the following table I:
“Cmax” is the mean maximum plasma concentration; “F Cmax” is the calculated mean bioavailability of the Cmax for propofol generated from the tested prodrug (as administered via various routes and at various doses), relative to an intravenous dose of 5 mg/kg at Cmax; “AUCt” is the mean area under the curve from time 0 to the last measured time point (360 min); “F AUCt” is the calculated mean bioavailability for AUCt. “Bioavailability” is the quotient, expressed as per cent, of the Cmax or AUCt for intragastric (po) or intraduodenal (GB) administration, and the Cmax or AUCt for a 5 mg/kg intravenous dose, adjusted for dose. […] This transformation provides a reasonable measure to compare the systemic exposure to propofol generated from the test compound (after administration of various doses by various routes) to systemic propofol exposure after I.V. administration of the prodrug.

[3] = ID (intraduodenal) 400 mg, 0.0 hr
[4] = ID (intraduodenal) 400 mg, 0.08 hr
[5] = ID (intraduodenal) 400 mg, 0.17 hr
[6] = ID (intraduodenal) 400 mg, 0.33 hr
[7] = ID (intraduodenal) 400 mg, 0.50 hr
[8] = ID (intraduodenal) 400 mg, 0.75 hr
[9] = ID (intraduodenal) 400 mg, 1.0 hr
[10] = ID (intraduodenal) 400 mg, 1.5 hr
[11] = ID (intraduodenal) 400 mg, 2.0 hr
[12] = ID (intraduodenal) 400 mg, 4.0 hr
[13] = ID (intraduodenal) 400 mg, 6.0 hr
[14] = ID (intraduodenal) 400 mg, 9.0 hr

With CC(C)c1cccc(C(C)C)c1OCOP(=O)([O-])[O-].[Na+].[Na+] [O-phosphonooxymethyl propofol disodium salt] the “Blood plasma concentration of propofol, Mean” value [1, 3] was 0.0 ng/mL, the “Blood plasma concentration of propofol, Median” value [1, 3] was 0.0 ng/mL and the “Blood plasma concentration of propofol, Mean” value [1, 4] was 194.1 ng/mL. The “Blood plasma concentration of propofol, Median” value [1, 4] was 144.5 ng/mL, the “Blood plasma concentration of propofol, Mean” value [1, 5] was 247.6 ng/mL and the “Blood plasma concentration of propofol, Median” value [1, 5] was 210.9 ng/mL. For the same compound, the “Blood plasma concentration of propofol, Mean” value [1, 6] was 272.0 ng/mL, the “Blood plasma concentration of propofol, Median” value [1, 6] was 277.3 ng/mL and the “Blood plasma concentration of propofol, Mean” value [1, 7] was 178.6 ng/mL. The “Blood plasma concentration of propofol, Median” value [1, 7] was 211.3 ng/mL, the “Blood plasma concentration of propofol, Mean” value [1, 8] was 76.5 ng/mL and the “Blood plasma concentration of propofol, Median” value [1, 8] was 52.3 ng/mL. The “Blood plasma concentration of propofol, Mean” value [1, 9] was 47.7 ng/mL, the “Blood plasma concentration of propofol, Median” value [1, 9] was 45.3 ng/mL and the “Blood plasma concentration of propofol, Mean” value [1, 10] was 25.4 ng/mL. For the same compound, the “Blood plasma concentration of propofol, Median” value [1, 10] was 24.7 ng/mL, the “Blood plasma concentration of propofol, Mean” value [1, 11] was 16.4 ng/mL and the “Blood plasma concentration of propofol, Median” value [1, 11] was 14.2 ng/mL. The “Blood plasma concentration of propofol, Mean” value [1, 12] was 5.0 ng/mL, the “Blood plasma concentration of propofol, Median” value [1, 12] was 5.6 ng/mL and the “Blood plasma concentration of propofol, Mean” value [1, 13] was 0.0 ng/mL. The “Blood plasma concentration of propofol, Median” value [1, 13] was 0.0 ng/mL, the “Blood plasma concentration of propofol, Mean” value [1, 14] was 0.0 ng/mL and the “Blood plasma concentration of propofol, Median” value [1, 14] was 0.0 ng/mL. The “Blood plasma concentration of propofol, Mean” value ([1]; Oral 400 mg, 0.0 hr) was 0.0 ng/mL, the “Blood plasma concentration of propofol, Median” value ([1]; Oral 400 mg, 0.0 hr) was 0.0 ng/mL and the “Blood plasma concentration of propofol, Mean” value ([1]; Oral 400 mg, 0.08 hr) was 6.6 ng/mL. The “Blood plasma concentration of propofol, Median” value ([1]; Oral 400 mg, 0.08 hr) was 0.0 ng/mL, the “Blood plasma concentration of propofol, Mean” value ([1]; Oral 400 mg, 0.17 hr) was 103.9 ng/mL and the “Blood plasma concentration of propofol, Median” value ([1]; Oral 400 mg, 0.17 hr) was 43.6 ng/mL. For the same compound, the “Blood plasma concentration of propofol, Mean” value ([1]; Oral 400 mg, 0.33 hr) was 197.2 ng/mL, the “Blood plasma concentration of propofol, Median” value ([1]; Oral 400 mg, 0.33 hr) was 153.6 ng/mL and the “Blood plasma concentration of propofol, Mean” value ([1]; Oral 400 mg, 0.50 hr) was 144.1 ng/mL. The “Blood plasma concentration of propofol, Median” value ([1]; Oral 400 mg, 0.50 hr) was 151.4 ng/mL, the “Blood plasma concentration of propofol, Mean” value ([1]; Oral 400 mg, 0.75 hr) was 75.0 ng/mL and the “Blood plasma concentration of propofol, Median” value ([1]; Oral 400 mg, 0.75 hr) was 71.1 ng/mL. The “Blood plasma concentration of propofol, Mean” value ([1]; Oral 400 mg, 1.0 hr) was 53.2 ng/mL, the “Blood plasma concentration of propofol, Median” value ([1]; Oral 400 mg, 1.0 hr) was 37.6 ng/mL and the “Blood plasma concentration of propofol, Mean” value ([1]; Oral 400 mg, 1.5 hr) was 32.3 ng/mL. The “Blood plasma concentration of propofol, Median” value ([1]; Oral 400 mg, 1.5 hr) was 22.8 ng/mL, the “Blood plasma concentration of propofol, Mean” value ([1]; Oral 400 mg, 2.0 hr) was 19.0 ng/mL and the “Blood plasma concentration of propofol, Median” value ([1]; Oral 400 mg, 2.0 hr) was 18.8 ng/mL. The “Blood plasma concentration of propofol, Mean” value ([1]; Oral 400 mg, 4.0 hr) was 6.2 ng/mL, the “Blood plasma concentration of propofol, Median” value ([1]; Oral 400 mg, 4.0 hr) was 6.6 ng/mL and the “Blood plasma concentration of propofol, Mean” value ([1]; Oral 400 mg, 6.0 hr) was 0.9 ng/mL. For the same compound, the “Blood plasma concentration of propofol, Median” value ([1]; Oral 400 mg, 6.0 hr) was 0.0 ng/mL, the “Blood plasma concentration of propofol, Mean” value ([1]; Oral 400 mg, 9.0 hr) was 0.9 ng/mL and the “Blood plasma concentration of propofol, Median” value ([1]; Oral 400 mg, 9.0 hr) was 0.0 ng/mL. The “plasma propofol after intraduodenal instillation compared to oral (in words)” value ([1]; intraduodenal 400 mg, human subjects) was “appreciably higher levels, and at earlier timepoints”, the “plasma propofol after oral administration (in words)” value ([1]; oral 400 mg, human subjects) was “appreciable plasma concentrations of propofol” and the “plasma propofol concentrations above the upper limit of quantification” value ([1]; some values from four of the subjects, second, third and fourth timepoints, 400 mg) was > 400 ng/mL. The F_Cmax ([2]; Gb (intraduodenal) 1 mg/kg) was 14.4%, the F_AUCt ([2]; Gb (intraduodenal) 3 mg/kg) was 9.34% and the F_Cmax ([2]; Gb (intraduodenal) 3 mg/kg) was 27.3%. It also gave a F_AUCt ([2]; Gb (intraduodenal) 10 mg/kg) of 27.4%, a F_Cmax ([2]; Gb (intraduodenal) 10 mg/kg) of 35.0% and a F_AUCt ([2]; Gb (intraduodenal) 30 mg/kg) of 55%. The F_Cmax ([2]; Gb (intraduodenal) 30 mg/kg) was 74.0%, the F_AUCt ([2]; Gb (intraduodenal) 100 mg/kg) was 161% and the F_Cmax ([2]; Gb (intraduodenal) 100 mg/kg) was 102%. It also gave a F_AUCt ([2]; I.V. 5 mg/kg) of 100%, a F_Cmax ([2]; I.V. 5 mg/kg) of 100% and a F_AUCt ([2]; I.V. 50 mg/kg) of 117.9%. The F_Cmax ([2]; I.V. 50 mg/kg) was 86.7%, the “bioavailability of propofol liberated from the prodrug (in words)” value ([2]; gastric bypass) was “markedly enhanced” and the F_AUCt ([2]; p.o. 20 mg/kg) was 13.3%. For the same compound, the F_Cmax ([2]; p.o. 20 mg/kg) was 3.72%, the F_AUCt ([2]; p.o. 50 mg/kg) was 22.2% and the F_Cmax ([2]; p.o. 50 mg/kg) was 4.65%. The F_Cmax ([2]; p.o. 100 mg/kg) was 9.20%, the F_AUCt ([2]; p.o. 100 mg/kg, disodium salt) was 53.2% and the F_AUCt ([2]; p.o. 100 mg/kg, listed as test compound, disodium salt) was “above 50%”. The “Cmax bioavailability of propofol (F Cmax, in words)” value ([2]; p.o. 20, 50 and 100 mg/kg) was “limited at all tested dose levels”, the AUCt ([2]; Gb (intraduodenal) 3 mg/kg) was 0.389 µg·min/mL and the AUCt ([2]; Gb (intraduodenal) 10 mg/kg) was 3.81 µg·min/mL. It also gave an AUCt ([2]; Gb (intraduodenal) 30 mg/kg) of 22.9 µg·min/mL, an AUCt ([2]; Gb (intraduodenal) 100 mg/kg) of 223 µg·min/mL and an AUCt ([2]; I.V. 5 mg/kg) of 6.94 µg·min/mL. The AUCt ([2]; I.V. 50 mg/kg) was 81.8 µg·min/mL, the AUCt ([2]; p.o. 20 mg/kg) was 3.70 µg·min/mL and the AUCt ([2]; p.o. 50 mg/kg) was 15.4 µg·min/mL. The AUCt ([2]; p.o. 100 mg/kg) was 73.8 µg·min/mL, the Cmax ([2]; Gb (gastric bypass, intraduodenal) 1 mg/kg) was 8.26 ng/mL and the Cmax ([2]; Gb (intraduodenal) 3 mg/kg) was 46.8 ng/mL. For the same compound, the Cmax ([2]; Gb (intraduodenal) 10 mg/kg) was 200 ng/mL, the Cmax ([2]; Gb (intraduodenal) 30 mg/kg) was 1270 ng/mL and the Cmax ([2]; Gb (intraduodenal) 100 mg/kg) was 5840 ng/mL. It also gave a Cmax ([2]; I.V. 5 mg/kg) of 286 ng/mL, a Cmax ([2]; I.V. 50 mg/kg) of 2480 ng/mL and a Cmax ([2]; p.o. 20 mg/kg) of 42.6 ng/mL. It also gave a Cmax ([2]; p.o. 50 mg/kg) of 133 ng/mL and a Cmax ([2]; p.o. 100 mg/kg) of 526 ng/mL.
